Experimental data published in US20060204980A1, “Colorectal cancer therapies” (priority 2004, published 2006).

Legend:
Assay type in all cases: cell-based
[1] = test system: p53^+/+ HCT116 colorectal carcinoma cells; assay: Western blotting of p53 pathway proteins in treated p53+/+ HCT116 cells; details: for p21^Waf1/Cip1 expression (Western blot) / p53 expression (Western blot) / survivin expression (Western blot): p53+/+ HCT116; for p21^Waf1/Cip1 expression (Western blot) / p53 expression (Western blot): 6-24 hours
Description: (§1) Cells were collected and centrifuged at 3,000 rpm for 5 minutes at 4° C., and washed in PBS (pH 7.2). The cell pellet was solubilized in lysis buffer (20 mM Tris, pH 7.2, 0.5% deoxycholate, 1% Triton X-100, 0.1% SDS, 150 mM NaCl, 1 mM EDTA) containing proteases inhibitors (Complete, Roche Applied Science) for 30 min at 4° C. The lysate was cleared by centrifugation for 15 minutes, and protein concentration was evaluated using a Bio-Rad protein assay system (Bio-Rad Laboratories, Hercules, Calif.). Samples (30 μg) were separated by SDS-polyacrylamide gel, transferred to nylon membranes (Millipore), and incubated with primary antibodies to p53 (Oncogene Research Products, FL-393, Santa Cruz Biotechnology, Inc., Santa Cruz, Calif.), p21^Waf1/Cip1 (Oncogene Research Products), XIAP (BD Transduction Laboratories), survivin (NOVUS Biologicals, Littleton, Colo.), MDM2 (Santa Cruz Biotechnology, Inc.), p14^ARF (NOVUS Biologicals), caspase-3 (Cell Signaling Technology), cleaved caspase-3 (Cell Signaling Technology), β-catenin (BD Transduction Laboratories), cyclin B1 (GNS1, Santa Cruz Biotechnology, Inc.), GSK3β (Santa Cruz Biotechnology, Inc.), or β-sactin (Sigma) with detection of reactive bands by chemiluminescence (Amersham). Cells were analyzed for hypodiploid DNA content by propidium iodide staining and flow cytometry as described in O'Connor et al., Cancer Cell, 2:43-54 (2002). Chemicals whose source is not explicitly listed were or can be obtained from Sigma.
To explore the link between GSK3β inhibition and p53 modulation, in vivo, HCT116 cells were treated with Li, TDZD or SB216763, and analyzed cells by Western blotting. p53^+/+ or p53^−/− HCT116 cells were incubated with the following GSK3β inhibitors, LiCl (Sigma, 30 mM), thiadiazolidinone-8 (TDZD) (Calbiochem, 0-20 μM), or SB216763 (Sigma, 20 μM), cells were harvested after 6-24 hours, and samples were analyzed by Western blotting as described in Example 2. […]

GSK3β = GSK3β (Homo sapiens, UniProt P49841); assay: Immunoprecipitation and GSK3β kinase assay using glycogen synthase-derived peptide substrate, from treated HCT116 cells; parameters: harvested after 6 or 12 hours, and immunoprecipitated with an antibody to GSK3β; endogenous in cells; host or cells: HCT116 (p53+/+) colorectal carcinoma cells; details: p53+/+ HCT116 cells; Purvalanol A 10 μM, LiCl 30 mM, TDZD 20 μM; 6 or 12 hours
GSK3β, sequence (P49841 whole entry): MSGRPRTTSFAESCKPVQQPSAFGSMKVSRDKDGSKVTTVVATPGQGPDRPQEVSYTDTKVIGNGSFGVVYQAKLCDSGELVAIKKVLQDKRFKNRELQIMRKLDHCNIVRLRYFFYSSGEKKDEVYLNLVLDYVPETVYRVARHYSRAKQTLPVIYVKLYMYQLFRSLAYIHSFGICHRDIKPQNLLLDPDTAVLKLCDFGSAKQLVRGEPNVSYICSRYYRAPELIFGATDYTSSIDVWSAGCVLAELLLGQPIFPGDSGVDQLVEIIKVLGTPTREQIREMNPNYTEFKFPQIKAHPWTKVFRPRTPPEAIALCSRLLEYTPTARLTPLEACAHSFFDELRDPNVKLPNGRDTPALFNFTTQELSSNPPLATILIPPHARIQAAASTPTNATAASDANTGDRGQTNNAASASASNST
Description: Immune complexes were mixed with a synthetic peptide containing a GSK3β phosphorylation site derived from the sequence of glycogen synthase (Upstate Biotechnology) in the presence of 10 μCi of γ-^32P-ATP (Amersham Corp., Piscataway, N.J.), after 30 min incubation at 30° C., the reaction mixtures were centrifuged briefly, and 15 μl of the supernatant was spotted onto P81 phosphocellulose paper (Whatman Inc., Clifton, N.J.). The membrane was washed three times with 175 mM phosphoric acid, rinsed once in acetone, and dried. Changes in peptide phosphorylation under the various conditions tested were determined by scintillation counting. Data were analyzed using the unpaired t test on a Graphpad Prism software package for Windows (Graphpad Inc., San Diego, Calif.). A P value of 0.05 was considered as statistically significant.

p53^−/− HCT116 cells = assay: Multiparametric flow cytometry of caspase-3/7 (DEVDase) activity and cell viability, p53-/- HCT116; details: TDZD 20 μM, 48 hours; for apoptosis induction (DEVDase activity and plasma membrane integrity): p53-/- HCT116, LiCl 30 mM
Description: (§2) The functional consequences of GSK3β inhibition were explored. Source and maintenance of p53^+/+ and p53^−/− HCT116 colorectal carcinoma cells were as described in Example 2. […] Alternatively, cells were incubated with GSK3β inhibitors LiCl (30 mM) or TDZD (20 μM), harvested after 48 hours and analyzed for cell viability (propidium iodide, red channel) and active caspase-3/7 activity (green channel, […]®, from Chemicon International Inc., Temecula, Calif.), by multiparametric flow cytometry as reported previously in Kim et al., Lancet, 362:205-209 (2003).
(§3) To clarify the role of GSK3β inhibition in p53-dependent apoptosis, HCT116 cells were treated with TDZD or LiCl and monitored changes in cell death. […] See the two center column panels of FIG. 6C. […] See right hand column panels of FIG. 6C.

p53^+/+ HCT116 cells = assay: Multiparametric flow cytometry of caspase-3/7 (DEVDase) activity and cell viability, p53+/+ HCT116; details: TDZD 20 μM, 48 hours; for caspase-dependent apoptosis (DEVDase activity and plasma membrane integrity): p53+/+ HCT116, LiCl 30 mM
Description: as §2, §3

[2] = test system: p53^−/− HCT116 colorectal carcinoma cells; assay: Western blotting of p53 pathway proteins in treated p53-/- HCT116 cells
Description: as §1
To explore the link between GSK3β inhibition and p53 modulation, in vivo, HCT116 cells were treated with Li, TDZD or SB216763, and analyzed cells by Western blotting. p53^+/+ or p53^−/− HCT116 cells were incubated with the following GSK3β inhibitors, LiCl (Sigma, 30 mM), thiadiazolidinone-8 (TDZD) (Calbiochem, 0-20 μM), or SB216763 (Sigma, 20 μM), cells were harvested after 6-24 hours, and samples were analyzed by Western blotting as described in Example 2.

SMILES | p21^Waf1/Cip1 expression (Western blot) [1] | p53 expression (Western blot) [1] | GSK3β kinase activity (peptide phosphorylation) (GSK3β) | apoptosis induction (DEVDase activity and plasma membrane integrity) (p53^−/− HCT116 cells) | caspase-dependent apoptosis (DEVDase activity and plasma membrane integrity) (p53^+/+ HCT116 cells) | survivin expression (Western blot) [1] | increase in fraction of apoptotic cells (p53^−/− HCT116 cells; p53-/- cells) [fold] | increase in fraction of apoptotic cells (p53^+/+ HCT116 cells; p53+/+ cultures) [fold] | survivin expression (Western blot) [2] | MDM2 expression (Western blot) ([1]; HCT116 cells) | p14^ARF expression (Western blot) ([1]; HCT116 cells, relative to vehicle)
Cn1cc(C2=C(c3ccc(Cl)cc3Cl)C(=O)NC2=O)c2ccccc21 [SB216763] | prominent upregulation | strong induction of p53 |  |  |  |  |  |  |  |  | 
[Cl-].[Li+] [LiCl, lithium chloride] |  | elevation of p53 levels only at 24 hours after treatment | suppressed GSK3β activity | considerably less effective at inducing apoptosis | reproduced caspase-dependent apoptosis | time-dependent downregulation of survivin |  |  |  |  | 
O=C1Cc2c([nH]c3ccc([N+](=O)[O-])cc23)-c2ccccc2N1 [alsterpaullone] |  | elevation of p53 levels |  |  |  |  |  |  |  |  | 
Cn1sc(=O)n(Cc2ccccc2)c1=O [TDZD, 4-Benzyl-2-methyl-1,2,4-thiadiazolidine-3,5-dione] | prominent upregulation | strong induction of p53 | suppressed GSK3β activity | considerably less effective at inducing apoptosis | reproduced caspase-dependent apoptosis | time-dependent downregulation of survivin | 1.7 | ~4.5 | no changes in survivin expression | reduced expression | upregulation of p14^ARF
